Measurements published in patent US20170057910A1, “ANTITUMOR NAPHTHALENYL BENZAMIDE DERIVATIVES” (THE CLEVELAND CLINIC FOUNDATION, priority 2015, published 2017).
“Also recorded” adds a separate entry of the source.

Columns and labels:
5TGM1-luc cells = assay: Immunocompetent systemic mouse myeloma model (5TGM1-luc); format: in vivo; conditions: for anti-MM activity in vivo (imaging, time to death or euthanasia): albumin-based solutions, CCF642 IV then IP 1-12 mg/kg, CCF1172 IP three times a week 22 then 44 mg/kg; for adverse events by clinical observations and weekly weight measurements: three times a week clinical observations, increasing doses
Experimental: C57BL/KaLwRij mice were injected with 4×10^6 5 TGM1-luc cells per mouse via the tail vein. The next day, treatments were started. Compounds were diluted from DMSO stock into aqueous bovine serum albumin (Sigma, cat. # A7030) solution, supplemented, after compound addition, with NaCl to a final NaCl concentration of 150 mM. In this pilot experiment we aimed to evaluate general tolerance and activity using increasing doses. CCF642 was given in 10% BSA IV twice a week for the first three weeks followed by IP three times a week. IV doses started with 1 mg/kg (3% DMSO) and increased by 1 mg/kg per week (6% DMSO in the second and 10% DMSO in the third week). IP doses started with 6 mg/kg in week 4 and from week 5 onwards used 12 mg/kg (10% DMSO in both). CCF1172 (obtained from SPECS) was given IP three times a week, 22 mg/kg in the first two weeks, then 44 mg/kg (10% BSA, 10% DMSO).

MM1.S-luc = assay: Three organ system sandwich assay, MM luciferase activity; format: cell-based
From the text: (§1) FIG. 1A, FIG. 1B, and FIG. 1C provide a scheme showing a sandwich three organ system assay, structures of lead compounds, and a graph of cell viability. Development of the three organ system sandwich assay yields structurally distinct promising anti-myeloma compounds. (a) To address the objective of identifying new clinically translatable treatments for the incurable cancer multiple myeloma (MM) that disrupt critical programs for this malignancy while sparing normal bone marrow, the inventors submitted hits from a mechanistically unbiased primary anti-MM screen to tests that modeled key components of the in vivo situation, initially separately, then in one multi-layered sandwich assay, followed by assessment of anti-MM activity in a panel of genetically heterogeneous MM cell lines.
(§2) Sandwich assay: HS-5 bone marrow stromal cells which secrete hematopoietic growth factors including multiple myeloma (MM) supporting IL-6 are grown to confluence on Transwell™ inserts before firefly luciferase expressing MM1.S cells are added and incubated overnight. […] Three to four days later MM luciferase activity is measured and viability of NL BM, constantly drug exposed for maximal stringency, is assessed by trypan blue exclusion using Vicell™ flow.

lymphoma cell lines = assay: Activity in lymphoma cell lines; format: cell-based; conditions: 6 of 7 lymphoma cell lines
From the text: Cell lines: Multiple myeloma cell lines MM1.S, MM1.R, NCI-H929 were obtained from ATCC. MM cell lines KMS-12-PE and KMS-12-BM were from the JCRB, JJN-3 from DSMZ, and 5TGM1-luc cells were from Dr. Yoneda at the University of Texas Health Science at San Antonio. HRMM.09 cells were generated in the inventor's lab from a patient who developed refractory myeloma after treatment with steroids, IMiD, proteasome inhibitors, DNA alkylators, and anthracyclines. MM1.S-luc and HRMM.09-luc were generated in the inventor's laboratory by transduction with Cignal™ firefly luciferase control lentivirus obtained from Qiagen™ Lymphoma cells were generated by Mitchell Smith. All MM and lymphoma cells were grown in RPMI 1640 (NaCl 103.45 mM, NaCO3 23.81 mM, Na2HPO4 5.63 mM, KCl 5.33 mM, Ca(NO3)2 4H2O 0.424 mM, MgSO4 0.407 mM, pH around 7.2), supplemented with 10% fetal bovine serum, penicillin G (50 units ml^−1), and streptomycin (50 μM ml^−1). HS-5 cells were grown in appropriate cell culture media. Normal bone marrow cells were obtained from discarded bags of bone marrow grafts from healthy donors and either kept in RPMI with 25% (v/v) HS-5 supernatant for up to 14 days for isolated cytotoxicity assays or frozen and thawed for the sandwich assay. All cells were cultured at 37° C., 5% CO2 in humidified air. […]

MM cell lines = assay: Anti-MM activity in a panel of genetically heterogeneous MM cell lines; format: cell-based
From the text: Cell lines: Multiple myeloma cell lines MM1.S, MM1.R, NCI-H929 were obtained from ATCC. MM cell lines KMS-12-PE and KMS-12-BM were from the JCRB, JJN-3 from DSMZ, and 5TGM1-luc cells were from Dr. Yoneda at the University of Texas Health Science at San Antonio. HRMM.09 cells were generated in the inventor's lab from a patient who developed refractory myeloma after treatment with steroids, IMiD, proteasome inhibitors, DNA alkylators, and anthracyclines. MM1.S-luc and HRMM.09-luc were generated in the inventor's laboratory by transduction with Cignal™ firefly luciferase control lentivirus obtained from Qiagen™ Lymphoma cells were generated by Mitchell Smith. All MM and lymphoma cells were grown in RPMI 1640 (NaCl 103.45 mM, NaCO3 23.81 mM, Na2HPO4 5.63 mM, KCl 5.33 mM, Ca(NO3)2 4H2O 0.424 mM, MgSO4 0.407 mM, pH around 7.2), supplemented with 10% fetal bovine serum, penicillin G (50 units ml^−1), and streptomycin (50 μM ml^−1). HS-5 cells were grown in appropriate cell culture media. Normal bone marrow cells were obtained from discarded bags of bone marrow grafts from healthy donors and either kept in RPMI with 25% (v/v) HS-5 supernatant for up to 14 days for isolated cytotoxicity assays or frozen and thawed for the sandwich assay. All cells were cultured at 37° C., 5% CO2 in humidified air.
Taking a mechanistically unbiased approach to drug discovery the inventors developed a sandwich assay that selected anti-MM compounds from a primary ATP-based 30,000 small molecule screen for lack of toxicity on normal bone marrow, stability towards liver enzymes, and activity in the context of cell barriers, bone marrow stromal support, and short, kidney-clearance-like exposure. CCF1172 emerged as one of three promising compounds and had sub-μM IC50 potency in all 8 MM cells tested and 6 of 7 lymphoma cell lines.

[1] = Three organ system sandwich assay, normal bone marrow viability by trypan blue exclusion; format: cell-based; conditions: human, read-out: reduction of viable NLBM cells
From the text: as §1, §2

refractory myeloma = conditions: cited from earlier work

Compound	anti-MM activity in vivo (imaging, time to death or euthanasia) (5TGM1-luc cells)	adverse events by clinical observations and weekly weight measurements (5TGM1-luc cells)	effectiveness in the sandwich assay compared with CCF642 and CCF1118 (MM1.S-luc)	reduction of MM1.S-luc luminescence (MM1.S-luc; 15 μM)	IC50 potency in lymphoma cell lines (lymphoma cell lines)	potency in the MM cell line panel compared with CCF642 and CCF1118 (MM cell lines; MM cell line panel)	IC50 potency in MM cells (MM cell lines; all 8 MM cells tested)	activity against genetically heterogenous MM cell lines (MM cell lines; seven MM cell lines)	cytotoxicity at 15 μM [1] [%]	overall response rate (refractory myeloma; single agent, refractory myeloma patients)	survival relative to expected survival (refractory myeloma; two phase studies, patients with refractory myeloma)
COc1ccc(N2C(=O)/C(=C\c3ccc([N+](=O)[O-])s3)SC2=S)cc1 [CCF642, reference compound]	had anti-MM activity	No obvious adverse events	–	–	–	–	–	–	–	–	–
O=C(Nc1cccc2ccccc12)c1cc(Cl)ccc1O [CCF1172]	demonstrated in vivo activity; also recorded: had anti-MM activity	No obvious adverse events	equally effective	70-80%	sub-μM	less potent	sub-μM	uniform activity	< 30	–	–
Daratumumab: the first anti-CD38 antibody for use in myeloma	–	–	–	–	–	–	–	–	–	about 30%	over twice of expected survival
